Assays:
Format in all cases: in vivo
[1] = system: Stellaria media, Lolium multiflorum, Amaranthus retroflexus, Sinapis alba, Avena sativa and Settaria viridis; test: Pre-emergence effect on weeds (greenhouse pot test); conditions: application rate of 1 kg or less of active substance per hectare; visually scored after 3 to 4 weeks by comparison with untreated controls
Description: Seeds or rhizome pieces of mono and dicotyledonous weed plants are placed in sandy loam soil in plastic pots and covered with soil. The compounds according to the invention which are formulated in the form of wettable powders or emulsion concentrates are then applied to the soil cover in the form of aqueous suspensions or emulsions at an application rate of 600 to 800 l of water/ha (converted), in various dosages.

[2] = system: Sinapis alba, Echinochloa crus-galli, Lolium multiforum, Stellaria media, Cyperus iria, Amaranthus retroflexus, Settaria viridis and Avena sativa; test: Post-emergence effect on weeds (greenhouse pot test); conditions: application rate of 1 kg or less of active substance per hectare; treated at the three-leaf stage; scored visually after about 3 to 4 weeks vs untreated controls
Description: Seeds or rhizome pieces of mono- and dicotyledonous weeds are placed in sandy loam soil in plastic pots, covered with soil and grown in a greenhouse under good growth conditions. Three weeks after sowing, the test plants are treated at the three-leaf stage. The compounds according to the invention, formulated as wettable powders or emulsion concentrates, are sprayed, at various dosages, onto the green parts of the plants at an application rate of 600 to 800 l of water/ha (converted). After the test plants had remained in the greenhouse for about 3 to 4 weeks under optimum growth conditions, the effect of the preparations is scored visually by comparison with untreated controls. The agents according to the invention also have good herbicidal activity post-emergence against a broad spectrum of economically important weed grasses and broad-leaved weeds.

[3] = system: Cyperus monti, Echinochloa crus-galli and Sagitaria pygmaea; test: Action on harmful plants in rice (paddy rice conditions); conditions: poured into the dammed water, visual scoring about three weeks after application; also: test concentration or dose not given here
Description: Transplanted and sown rice and also typical rice weeds (gramineous and broad-leaved) are cultivated in closed plastic pots in a greenhouse to the three-leaf stage (Echinochloa crus-galli 1.5-leaf) under paddy rice conditions (height of water: 2-3 cm). This is followed by treatment with the compounds according to the invention. For this purpose, the formulated active compounds are suspended, dissolved or emulsified in water and applied by pouring them into the dammed water around the test plants in different dosages.

SMILES	herbicidal activity pre-emergence against harmful plants [1]	herbicidal activity post-emergence against harmful plants [2]	herbicidal activity against harmful plants which are typical for rice crops [3]
CC(C)c1nc(N)nc(NC(CCCc2ccccc2)C2CCC2)n1 (stereo not drawn) [Example 4-58]	very good herbicidal activity	very good herbicidal activity	very good herbicidal activity
CC(C)(F)c1nc(N)nc(N[C@H](Cc2ccccc2)CC2CC2)n1 [Example 6-2]	very good herbicidal activity	very good herbicidal activity	very good herbicidal activity
Nc1nc(NC(CCCc2ccc(Cl)cc2Cl)C2CC2)nc(C(F)(F)F)n1 (stereo not drawn) [Example 4-6]	very good herbicidal activity	very good herbicidal activity	very good herbicidal activity
CC(C)c1nc(N)nc(NC(CCCCc2ccccc2)C2CC2)n1 (stereo not drawn) [Example 5-43]	very good herbicidal activity	very good herbicidal activity	very good herbicidal activity
CC(C)(F)c1nc(N)nc(N[C@H](CCc2ccccc2)C2CCC2)n1 [Example 2-15, 2-Amino-4-(1-fluoro-1-methylethyl)-6-[(1 R)-3-phenyl-1-cyclobutyl-1-propylamino]-1,3,5-triazine]	very good herbicidal activity	very good herbicidal activity	very good herbicidal activity
Nc1nc(N[C@@H](CCCc2ccc(Cl)cc2Cl)C2CC2)nc(C(F)(F)F)n1 [Example 3-6]	very good herbicidal activity	very good herbicidal activity	very good herbicidal activity
CC(C)c1nc(N)nc(N[C@H](CCc2ccccc2)CC2CC2)n1 [Example 2-144]	very good herbicidal activity	very good herbicidal activity	very good herbicidal activity
CCc1nc(N)nc(N[C@@H](CCCc2ccccc2)C2CC2)n1 [Example 3-9]	very good herbicidal activity	very good herbicidal activity	very good herbicidal activity
CC(C)c1nc(N)nc(NC(Cc2ccccc2)CC2CC2)n1 (stereo not drawn) [Example 5-3]	very good herbicidal activity	very good herbicidal activity	very good herbicidal activity
CC(F)c1nc(N)nc(NC(CCCc2ccccc2)C2CC2)n1 (mixture of isomers) [Example 4-3]	very good herbicidal activity	very good herbicidal activity	very good herbicidal activity
CC(C)(F)c1nc(N)nc(N[C@H](CCCCc2ccccc2)C2CCC2)n1 [Example 6-47]	very good herbicidal activity	very good herbicidal activity	very good herbicidal activity
CC(C)(F)c1nc(N)nc(NC(CCCc2cccc(Cl)c2)C2CCC2)n1 (stereo not drawn) [Example 4-68]	very good herbicidal activity	very good herbicidal activity	very good herbicidal activity
CC(C)c1nc(N)nc(N[C@H](CCc2ccccc2)C2CCC2)n1 [Example 2-14]	very good herbicidal activity	very good herbicidal activity	very good herbicidal activity
CC(C)(F)c1nc(N)nc(N[C@H](CCc2cccc(Cl)c2)C2CCC2)n1 [Example 2-24]	very good herbicidal activity	very good herbicidal activity	very good herbicidal activity
Cc1cccc(CC[C@H](Nc2nc(N)nc(C(C)(C)F)n2)C2CCC2)c1 [Example 1-28]	very good herbicidal activity	very good herbicidal activity	very good herbicidal activity
CC(C)(F)c1nc(N)nc(NC(CCc2cccc(F)c2)C2CC2(Cl)Cl)n1 (mixture of isomers) [Example 2-6]	–	very good herbicidal activity	–
Cc1cccc(CCCC(Nc2nc(N)nc(C(C)(C)F)n2)C2CCC2)c1 (stereo not drawn) [Example 3-72]	very good herbicidal activity	very good herbicidal activity	very good herbicidal activity
CC(C)c1nc(N)nc(NC(CCCc2ccccc2)C2CC2)n1 (stereo not drawn) [Example 4-11]	very good herbicidal activity	very good herbicidal activity	very good herbicidal activity
CC(C)c1nc(N)nc(N[C@@H](CCCc2ccccc2)C2CC2)n1 [Example 3-11]	very good herbicidal activity	very good herbicidal activity	very good herbicidal activity
Cc1cccc(CC[C@H](Nc2nc(N)nc(C(C)C)n2)C2CCC2)c1 [Example 1-27]	very good herbicidal activity	very good herbicidal activity	very good herbicidal activity
CCc1nc(N)nc(NC(CCCc2ccccc2)C2CC2)n1 (stereo not drawn) [Example 4-9]	very good herbicidal activity	very good herbicidal activity	very good herbicidal activity
CC(C)c1nc(N)nc(N[C@@H](CCCc2ccccc2)C2CCC2)n1 [Example 3-58]	very good herbicidal activity	very good herbicidal activity	very good herbicidal activity
CC(C)(F)c1nc(N)nc(NC(CCCCc2ccccc2)C2CCC2)n1 (stereo not drawn) [Example 5-47]	very good herbicidal activity	very good herbicidal activity	very good herbicidal activity
CC(C)(F)c1nc(N)nc(NC(CCCc2cccc(Cl)c2)C2CCC2)n1 (stereo not drawn) [Example 3-68]	very good herbicidal activity	very good herbicidal activity	very good herbicidal activity
CC(C)c1nc(N)nc(N[C@H](Cc2ccccc2)CC2CC2)n1 [Example 6-3]	very good herbicidal activity	very good herbicidal activity	very good herbicidal activity
CC(C)c1nc(N)nc(N[C@H](CCc2cccc(Cl)c2)C2CCC2)n1 [Example 2-23]	very good herbicidal activity	very good herbicidal activity	very good herbicidal activity
Cc1cccc(CCCC(Nc2nc(N)nc(C(C)(C)F)n2)C2CCC2)c1 (stereo not drawn) [Example 4-72]	very good herbicidal activity	very good herbicidal activity	very good herbicidal activity
Cc1nc(N)nc(N[C@H](CCc2ccccc2)C2CCC2)n1 [Example 2-16]	very good herbicidal activity	–	very good herbicidal activity
CC(C)c1nc(N)nc(NC(CCCc2cccc(Cl)c2)C2CCC2)n1 (stereo not drawn) [Example 3-67]	very good herbicidal activity	very good herbicidal activity	very good herbicidal activity

Source: US20010011063A1, “Substituted 2,4-diamino-1,3,5-triazines, processes for their preparation and their use as herbicides and plant growth regulators” (priority 1999, published 2001)
